{"source": "patent US20190119193A1", "about": "“COMPOSITION FOR REGULATING PLANT GROWTH, METHOD FOR TREATING PLANTS THEREWITH, AND ACTIVE INGREDIENT THEREOF” (Ivan Aleksandrovich Starikov, priority 2016, published 2019)", "key": {"[1]": {"experiment": "Dilution of DMSO solution (10 g/L) in water", "format": "physicochemical", "details": "solution in DMSO (10 g/L) diluted in large quantities of water"}, "[2]": {"tested_on": "spring wheat of “Zlata” variety", "experiment": "Field tests of GS-200 on wheat", "format": "in vivo", "method": "After that GS-200 were dissolved in dimethyl sulfoxide to give solution of 10 g/L concentration, then water was added to give aqueous solutions of GS-200 with concentrations of 5.3·10^−7 M, 1.7·10^−8 M, 5.3·10^−9 M, 1.7·10^−10 M, 5.3·10^−11 M, 1.7·10^−12 M.\nThe field tests of the obtained aqueous solutions of GS-200 on spring wheat of “Zlata” variety were carried out. The tests were carried out in agroclimatic zone I, on the experimental field of the Moscow RIA «Nemchinovka» Agricultural technology center's Laboratory for the Development of Grain Protection Systems (Moscow region, Odintsovo district, Novoivanovskoe, 2017), according to the method adopted for registration tests of plant growth regulators: Methodology guidelines for approval tests of new fertilizers, bioregulators and plant regulators. Moscow-Vladimir, 2009, p. 104; State procedure of strain tests for agricultural crop. Corny, leguminous and forage cultures. Edition 1, M., 1985—p. 269, Edition 2, M., 1989—p. 194; State procedure of strain tests for agricultural crop. Corny, leguminous and forage cultures. Edition 1, M., 1985—p. 269, Edition 2, M., 1989—p. 194; All-Union Standard 10-108-87; All-Union State Standard 26212-91; All-Union State Standard 26207-91; All-Union Standard 10-108-87.\nThe soil of the testing ground is sod-podzolic on the covering silt. The depth of the topsoil is 27-30 centimeters, humus content is up to 2.2%, pHsalt is about 5.8-5.9, labile phosphorus index is 135-145 mg/kg, and exchange potassium index is 100-110 mg/kg.\nTests were conducted from Apr. 24 to Aug. 17, 2017. The weather conditions of the whole growing period were highly unfavorable (normal amount of precipitations was exceeded more than one and a half times; the temperature was much lower than long-term annual average), which is a strong stress factor.\nControl test—without treatment with growth regulators.\nArea of experimental plots—50 m^2, accounting area—40 m^2. Fourfold replication of the experiments.\nPreceding crop was winter wheat. Immediately after the autumn harvesting of winter crops the area was treated with disc harrow to a depth of 10-12 cm. Then, fall plowing to a depth of 18-21 cm by a reverse plow and harrowing were carried out.\nBefore seeding the test crop, the soil was fertilized with nitrogen-phosphorus-potassium fertilizer in a dose of N64P64K64. Date of sowing: Apr. 24, 2017. Seeding rate: 5.5 million of germinated grains per 1 hectare.\nBefore seeding, all the seeds were treated with “Vincite Forte” fungicide with a consumption rate of 0.8 L per ton of seeds, as well as the aqueous solution of GS-200 selected for the experiment with a consumption rate of 10 L per ton of seeds (this aqueous solution was directly used as a liquid for treatment) or without a growth regulator, depending on the experiment. The following concentrations of the GS-200 solutions were used for treatment: 5.3·10^−7 M, 5.3·10^−9 M, […].\nAt the tillering phase (May 29-30) the crops were sprayed against weeds with “Linthur” herbicide at a dose of 175.0 g/ha. In the beginning of booting stage (June 12-13), in order to prevent blasts and leaf diseases, crops were sprayed with tank mixture of insecticide “BoreiNeo” in a dose 0.5 L/ha and fungicide “Alto Super” in a dose 0.5 L/ha. In the beginning of ear stage (June 28) crops on the testing ground were sprayed with tank mixture of fungicide “Rakurs” (against Septoria blight and Fusarium blight) in a dose 0.5 L/ha and a solution of GS-200 in a dose 300 L/ha. Spraying with aqueous solutions of GS-200 was carried out for all variants, where GS-200 were used for seed treatment. The concentration of the spraying solution was one-thirtieth of the concentration of the solution previously used for treatment of seeds: 1.7·10^−8 M, 1.7·10^−10 M and 1.7·10^−12 M respectively.\nHarvesting of experimental plots was carried out on August 17, before harvesting test sheaves of 0.25 m^2 of each variant of the experiment were selected for structural analysis. […]"}, "[3]": {"details": "seeds treated 5.3 · 10^−7 M, sprayed 1.7·10^−8 M"}, "[4]": {"details": "seeds treated 5.3 · 10^−9 M, sprayed 1.7·10^−10 M"}, "[5]": {"details": "seeds treated 5.3 · 10^−11 M, sprayed 1.7·10^−12 M"}}}
{"molecule": "CCOC(=O)C(=O)CC(=O)N(CC)CC", "note": "[GS-202, Ethyl 4-(diethylamino)-2,4-dioxobutanoat]", "values": [{"measurement": "Appearance on dilution in water", "setting": "[1]", "result": "clear solution"}]}
{"molecule": "COC(=O)C(=O)C(Cl)C(=O)OC", "note": "(centres unmarked) [GS-172, Dimethyl 2-chloro-3-oxobutanedioate]", "values": [{"measurement": "Appearance on dilution in water", "setting": "[1]", "result": "clear solution"}]}
{"molecule": "CCOC(=O)C(=O)CC(C)=O", "note": "[GS-300, Ethyl 2,4-dioxovalerate]", "values": [{"measurement": "Appearance on dilution in water", "setting": "[1]", "result": "clear solution"}]}
{"molecule": "CCOC(=O)C(=O)CC(=O)c1ccccc1", "note": "[GS-310, Ethyl 2,4-dioxo-4-phenylbutanoate]", "values": [{"measurement": "Appearance on dilution in water", "setting": "[1]", "result": "clear solution"}]}
{"molecule": "CN(C)C(=O)C(=O)CC(=O)N(C)CCO", "note": "[GS-214, N^4-(2-hydroxyethyl)-N^1,N^1,N^4-trimethyl-2-oxobutanediamide]", "values": [{"measurement": "Appearance on dilution in water", "setting": "[1]", "result": "clear solution"}]}
{"molecule": "CCOC(=O)CC(=O)C(=O)O", "note": "[GS-197, 4-Ethoxy-2,4-dioxobutanoic acid]", "values": [{"measurement": "Appearance on dilution in water", "setting": "[1]", "result": "clear solution"}]}
{"molecule": "CCN(CC)C(=O)CC(=O)C(N)=O", "note": "[GS-203, N^4,N^4-Diethyl-2-oxobutanediamide]", "values": [{"measurement": "Appearance on dilution in water", "setting": "[1]", "result": "clear solution"}]}
{"molecule": "CCOC(=O)C(=O)CC(=O)c1c[nH]c2ccccc12", "note": "[GS-312, Ethyl 4-(1H-indol-3-yl)-2,4-dioxobutanoate]", "values": [{"measurement": "Appearance on dilution in water", "setting": "[1]", "result": "bright yellow fluorescent suspension"}]}
{"molecule": "CCOC(=O)C(=O)C(C(=O)OCC)c1ccccc1", "note": "(centres unmarked) [GS-199, Diethyl 2-oxo-3-phenylbutanedioate]", "values": [{"measurement": "Appearance on dilution in water", "setting": "[1]", "result": "clear solution"}]}
{"molecule": "CCOC(=O)C(=O)C(Sc1ccc(C)cc1)C(=O)OCC", "note": "(centres unmarked) [GS-184, Diethyl 2-[(4-Methylphenyl)Sulfanyl]-3-Oxobutanedioate]", "values": [{"measurement": "Appearance on dilution in water", "setting": "[1]", "result": "clear solution"}]}
{"molecule": "CCOC(=O)CC(=O)C(=O)OCC", "note": "[GS-195, Diethyl ester of oxaloacetic acid]", "values": [{"measurement": "Appearance on dilution in water", "setting": "[1]", "result": "clear solution"}]}
{"molecule": "COC(=O)C1CNC(=O)C1=O", "note": "(centres unmarked) [GS-500, Methyl 4,5-dioxopyrrolidine-3-carboxylate]", "values": [{"measurement": "Appearance on dilution in water", "setting": "[1]", "result": "clear solution"}]}
{"molecule": "CCOC(=O)C(=O)CC(=O)N(C)C", "note": "[GS-200, Ethyl 4-(dimethylamino)-2,4-dioxobutanoat]", "values": [{"measurement": "1000 grains weight", "setting": "[2]; [3]", "result": 45.4, "unit": "g"}, {"measurement": "Gluten", "setting": "[2]; [3]", "result": 27.5, "unit": "% dry basis"}, {"measurement": "Main head length", "setting": "[2]; [3]", "result": 8.24, "unit": "cm"}, {"measurement": "Number of seeds from main head", "setting": "[2]; [3]", "result": 38.84, "unit": "pcs"}, {"measurement": "Number of spikelets in main head", "setting": "[2]; [3]", "result": 15.88, "unit": "pcs"}, {"measurement": "Number of stems", "setting": "[2]; [3]", "result": 450, "unit": "pcs/m^2"}, {"measurement": "Number of yielding stems", "setting": "[2]; [3]", "result": 398, "unit": "pcs/m^2"}, {"measurement": "Plant height", "setting": "[2]; [3]", "result": 121.1, "unit": "cm"}, {"measurement": "Productive tilling capacity", "setting": "[2]; [3]", "result": 1.46}, {"measurement": "Protein (N 5.7)", "setting": "[2]; [3]", "result": 12.21, "unit": "% dry basis"}, {"measurement": "Starch", "setting": "[2]; [3]", "result": 58.40, "unit": "% dry basis"}, {"measurement": "Total tilling capacity", "setting": "[2]; [3]", "result": 1.65}, {"measurement": "Weight of grains from main head", "setting": "[2]; [3]", "result": 1.89, "unit": "g"}, {"measurement": "Yield", "setting": "[2]; [3]", "result": 5.34, "unit": "t/ha"}, {"measurement": "Yield, % (comparing to control)", "setting": "[2]; [3]", "result": 124.8, "unit": "%"}, {"measurement": "1000 grains weight", "setting": "[2]; [4]", "result": 47.2, "unit": "g"}, {"measurement": "Gluten", "setting": "[2]; [4]", "result": 26.0, "unit": "% dry basis"}, {"measurement": "Main head length", "setting": "[2]; [4]", "result": 8.20, "unit": "cm"}, {"measurement": "Number of seeds from main head", "setting": "[2]; [4]", "result": 37.40, "unit": "pcs"}, {"measurement": "Number of spikelets in main head", "setting": "[2]; [4]", "result": 15.56, "unit": "pcs"}, {"measurement": "Number of stems", "setting": "[2]; [4]", "result": 462, "unit": "pcs/m^2"}, {"measurement": "Number of yielding stems", "setting": "[2]; [4]", "result": 388, "unit": "pcs/m^2"}, {"measurement": "Plant height", "setting": "[2]; [4]", "result": 118.5, "unit": "cm"}, {"measurement": "Productive tilling capacity", "setting": "[2]; [4]", "result": 1.53}, {"measurement": "Protein (N 5.7)", "setting": "[2]; [4]", "result": 11.56, "unit": "% dry basis"}, {"measurement": "Starch", "setting": "[2]; [4]", "result": 58.66, "unit": "% dry basis"}, {"measurement": "Total tilling capacity", "setting": "[2]; [4]", "result": 1.82}, {"measurement": "Weight of grains from main head", "setting": "[2]; [4]", "result": 1.90, "unit": "g"}, {"measurement": "Yield", "setting": "[2]; [4]", "result": 5.37, "unit": "t/ha"}, {"measurement": "Yield, % (comparing to control)", "setting": "[2]; [4]", "result": 125.5, "unit": "%"}, {"measurement": "1000 grains weight", "setting": "[2]; [5]", "result": 44.1, "unit": "g"}, {"measurement": "Gluten", "setting": "[2]; [5]", "result": 26.6, "unit": "% dry basis"}, {"measurement": "Main head length", "setting": "[2]; [5]", "result": 7.56, "unit": "cm"}, {"measurement": "Number of seeds from main head", "setting": "[2]; [5]", "result": 34.28, "unit": "pcs"}, {"measurement": "Number of spikelets in main head", "setting": "[2]; [5]", "result": 15.56, "unit": "pcs"}, {"measurement": "Number of stems", "setting": "[2]; [5]", "result": 398, "unit": "pcs/m^2"}, {"measurement": "Number of yielding stems", "setting": "[2]; [5]", "result": 360, "unit": "pcs/m^2"}, {"measurement": "Plant height", "setting": "[2]; [5]", "result": 118.7, "unit": "cm"}, {"measurement": "Productive tilling capacity", "setting": "[2]; [5]", "result": 1.71}, {"measurement": "Protein (N 5.7)", "setting": "[2]; [5]", "result": 11.82, "unit": "% dry basis"}, {"measurement": "Starch", "setting": "[2]; [5]", "result": 59.05, "unit": "% dry basis"}, {"measurement": "Total tilling capacity", "setting": "[2]; [5]", "result": 1.90}, {"measurement": "Weight of grains from main head", "setting": "[2]; [5]", "result": 1.60, "unit": "g"}, {"measurement": "Yield", "setting": "[2]; [5]", "result": 4.65, "unit": "t/ha"}, {"measurement": "Yield, % (comparing to control)", "setting": "[2]; [5]", "result": 108.6, "unit": "%"}, {"measurement": "Appearance on dilution in water", "setting": "[1]", "result": "clear solution"}]}
{"molecule": "COC(=O)C(=O)C(C)C(=O)OC", "note": "(centres unmarked) [GS-171, Dimethyl 2-methyl-3-oxobutanedioate]", "values": [{"measurement": "Appearance on dilution in water", "setting": "[1]", "result": "clear solution"}]}
